Laboratory results: patent US6737383B1, “Herbicidal oxadiazolidines” (priority 1999, dated 2004)

Tests used:
bedstraw = experiment: Test B pre/postemergence bedstraw; type: in vivo, Galium aparine
How it was run: (§1)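 Test chemicals in a non-phytotoxic solvent mixture with surfactant were sprayed preemergence onto planted seeds and postemergence onto plants 2 to 18 cm tall (1- to 4-leaf stage). After twelve to sixteen days in a greenhouse, injury was visually rated against untreated controls from 0 (no effect) to 10 (complete control).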

soybean = experiment: Test B pre/postemergence soybean; type: in vivo, Glycine max
How it was run: as §1

giant foxtail = experiment: Test B pre/postemergence giant foxtail; type: in vivo, Setaria faberii
How it was run: as §1

rape = experiment: Test B pre/postemergence rape; type: in vivo, Brassica napus
How it was run: as §1

cocklebur = experiment: Test B pre/postemergence cocklebur; type: in vivo, Xanthium strumarium
How it was run: as §1

purple nutsedge = experiment: Test B pre/postemergence purple nutsedge; type: in vivo, Cyperus rotundus
How it was run: as §1

blackgrass = experiment: Test B pre/postemergence blackgrass; type: in vivo, Alopecurus myosuroides
How it was run: as §1

wheat = experiment: Test B pre/postemergence wheat; type: in vivo, Triticum aestivum
How it was run: as §1

wild oat = experiment: Test B pre/postemergence wild oat; type: in vivo, Avena fatua
How it was run: as §1

morningglory = experiment: Test B pre/postemergence morningglory; type: in vivo, Ipomoea hederacea
How it was run: as §1

crabgrass = experiment: Test B pre/postemergence crabgrass; type: in vivo, Digitaria sanguinalis
How it was run: as §1

velvetleaf = experiment: Test B pre/postemergence velvetleaf; type: in vivo, Abutilon theophrasti
How it was run: as §1

corn = experiment: Test B pre/postemergence corn; type: in vivo, Zea mays
How it was run: as §1

surinam grass = experiment: Test B pre/postemergence surinam grass; type: in vivo, Brachiaria decumbens
How it was run: as §1

sugar beet = experiment: Test B pre/postemergence sugar beet; type: in vivo, Beta vulgaris
How it was run: as §1

pigweed = experiment: Test B pre/postemergence pigweed; type: in vivo, Amaranthus retroflexus
How it was run: as §1

[1] = Preemergence, Rate 62 g/ha, scale of 0 to 10 where 0 is no effect and 10 is complete control
[2] = Preemergence, Rate 125 g/ha, scale of 0 to 10 where 0 is no effect and 10 is complete control
[3] = Preemergence, Rate 250 g/ha, scale 0 to 10 (0 no effect, 10 complete control)
[4] = Preemergence, Rate 500 g/ha, scale of 0 to 10 where 0 is no effect and 10 is complete control
[5] = Rate 500 g/ha, Postemergence, scale 0 to 10, 0 is no effect, 10 is complete control
[6] = Postemergence, Rate 62 g/ha, scale 0 to 10, 0 is no effect, 10 is complete control
[7] = Postemergence, Rate 125 g/ha, scale of 0 to 10 where 0 is no effect and 10 is complete control
[8] = Postemergence, Rate 250 g/ha, scale of 0 to 10, 0 is no effect, 10 is complete control

CC(C)N(C(=O)n1oc(=O)n(CCF)c1=O)c1ccc(F)cc1F [Compound 670]
6: Morningglory plant response rating (morningglory; [8]) | Velvetleaf plant response rating (velvetleaf; [1]) | Corn plant response rating (corn; [5])
3: Plant response rating, Soybean (soybean; [6]) | Plant response rating, Soybean (soybean; [2]) | Cocklebur plant response rating (cocklebur; [5]) | Wild oats plant response rating (wild oat; [5]) | Plant response rating, Morningglory (morningglory; [6]) | Morningglory plant response rating (morningglory; [7]) | Plant response rating, Corn (corn; [6]) | Plant response rating, B. signalgrass (surinam grass; [6])
7: Wheat plant response rating (wheat; [1]) | Wild oats plant response rating (wild oat; [1]) | Plant response rating, Morningglory (morningglory; [2]) | Plant response rating, B. signalgrass (surinam grass; [7]) | B. signalgrass plant response rating (surinam grass; [8]) | Plant response rating, Redroot pigweed (pigweed; [6]) | Redroot pigweed plant response rating (pigweed; [7])
0: Soybean plant response rating (soybean; [1]) | Plant response rating, Rape (rape; [6]) | Cocklebur plant response rating (cocklebur; [1]) | Plant response rating, Cocklebur (cocklebur; [2]) | Plant response rating, Nutsedge (purple nutsedge; [6]) | Plant response rating, Wheat (wheat; [6]) | Wheat plant response rating (wheat; [7]) | Plant response rating, Wild oats (wild oat; [6]) | Wild oats plant response rating (wild oat; [7]) | Plant response rating, Sugarbeets (sugar beet; [6])
5: Soybean plant response rating (soybean; [5]) | Plant response rating, Nutsedge (purple nutsedge; [2]) | Nutsedge plant response rating (purple nutsedge; [5]) | Blackgrass plant response rating (blackgrass; [8]) | Blackgrass plant response rating (blackgrass; [5]) | Plant response rating, Velvetleaf (velvetleaf; [6]) | Velvetleaf plant response rating (velvetleaf; [7]) | Corn plant response rating (corn; [8])
9: Plant response rating, Bedstraw (bedstraw; [3]) | Plant response rating, Bedstraw (bedstraw; [4]) | Plant response rating, Soybean (soybean; [4]) | Plant response rating, Giant foxtail (giant foxtail; [6]) | Giant foxtail plant response rating (giant foxtail; [7]) | Giant foxtail plant response rating (giant foxtail; [8]) | Giant foxtail plant response rating (giant foxtail; [5]) | Plant response rating, Rape (rape; [2]) | Plant response rating, Blackgrass (blackgrass; [2]) | Plant response rating, Wheat (wheat; [2]) | Plant response rating, Wheat (wheat; [3]) | Plant response rating, Wheat (wheat; [4]) | Plant response rating, Wild oats (wild oat; [2]) | Plant response rating, Wild oats (wild oat; [3]) | Plant response rating, Wild oats (wild oat; [4]) | Plant response rating, Crabgrass (crabgrass; [6]) | Plant response rating, Corn (corn; [4]) | Plant response rating, B. signalgrass (surinam grass; [2]) | Plant response rating, Sugarbeets (sugar beet; [2]) | Plant response rating, Sugarbeets (sugar beet; [3]) | Plant response rating, Sugarbeets (sugar beet; [4]) | Redroot pigweed plant response rating (pigweed; [1]) | Redroot pigweed plant response rating (pigweed; [5])
4: Rape plant response rating (rape; [5]) | Nutsedge plant response rating (purple nutsedge; [7]) | Blackgrass plant response rating (blackgrass; [7]) | Wheat plant response rating (wheat; [5]) | Morningglory plant response rating (morningglory; [5]) | Velvetleaf plant response rating (velvetleaf; [5]) | Corn plant response rating (corn; [7]) | Plant response rating, Corn (corn; [2])
10: Giant foxtail plant response rating (giant foxtail; [1]) | Plant response rating, Giant foxtail (giant foxtail; [2]) | Plant response rating, Giant foxtail (giant foxtail; [3]) | Plant response rating, Giant foxtail (giant foxtail; [4]) | Plant response rating, Rape (rape; [3]) | Plant response rating, Rape (rape; [4]) | Plant response rating, Nutsedge (purple nutsedge; [4]) | Plant response rating, Blackgrass (blackgrass; [3]) | Plant response rating, Blackgrass (blackgrass; [4]) | Crabgrass plant response rating (crabgrass; [1]) | Plant response rating, Crabgrass (crabgrass; [2]) | Plant response rating, Crabgrass (crabgrass; [3]) | Plant response rating, Crabgrass (crabgrass; [4]) | Plant response rating, B. signalgrass (surinam grass; [3]) | Plant response rating, B. signalgrass (surinam grass; [4]) | Plant response rating, Redroot pigweed (pigweed; [2]) | Plant response rating, Redroot pigweed (pigweed; [3]) | Plant response rating, Redroot pigweed (pigweed; [4])
2: Soybean plant response rating (soybean; [7]) | Rape plant response rating (rape; [7]) | Plant response rating, Cocklebur (cocklebur; [6]) | Cocklebur plant response rating (cocklebur; [7]) | Cocklebur plant response rating (cocklebur; [8]) | Plant response rating, Cocklebur (cocklebur; [4]) | Plant response rating, Blackgrass (blackgrass; [6]) | Morningglory plant response rating (morningglory; [1]) | Corn plant response rating (corn; [1]) | Sugarbeets plant response rating (sugar beet; [7]) | Sugarbeets plant response rating (sugar beet; [5])
8: Bedstraw plant response rating (bedstraw; [1]) | Plant response rating, Bedstraw (bedstraw; [2]) | Bedstraw plant response rating (bedstraw; [5]) | Plant response rating, Soybean (soybean; [3]) | Rape plant response rating (rape; [1]) | Plant response rating, Nutsedge (purple nutsedge; [3]) | Blackgrass plant response rating (blackgrass; [1]) | Plant response rating, Morningglory (morningglory; [3]) | Plant response rating, Morningglory (morningglory; [4]) | Crabgrass plant response rating (crabgrass; [7]) | Crabgrass plant response rating (crabgrass; [8]) | Crabgrass plant response rating (crabgrass; [5]) | Plant response rating, Velvetleaf (velvetleaf; [2]) | Plant response rating, Velvetleaf (velvetleaf; [3]) | Plant response rating, Velvetleaf (velvetleaf; [4]) | Plant response rating, Corn (corn; [3]) | B. signalgrass plant response rating (surinam grass; [1]) | B. signalgrass plant response rating (surinam grass; [5]) | Sugarbeets plant response rating (sugar beet; [1])
